Holding throughout (assay type): cell-based
One assay addresses T1, mouse PPAR α (Mus musculus, UniProt P23204).
T1 construct: expressed in transfected cells; host or cells: HEK293T
T1 sequence (P23204 239-466 limits assumed): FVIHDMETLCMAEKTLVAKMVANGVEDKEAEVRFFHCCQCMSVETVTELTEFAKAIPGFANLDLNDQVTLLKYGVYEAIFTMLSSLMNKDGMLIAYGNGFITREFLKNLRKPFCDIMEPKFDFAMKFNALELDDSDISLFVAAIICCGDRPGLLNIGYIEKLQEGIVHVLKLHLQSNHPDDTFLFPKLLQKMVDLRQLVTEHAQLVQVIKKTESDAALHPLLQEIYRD
The assay is described as follows: PPAR α transactivation (GAL4 chimeric receptor luciferase reporter) assay. An excerpt: (§1) Chimeric receptors were constructed in which the yeast transcription factor GAL4 DNA binding domain was fused to the ligand binding domain of either mouse PPARγ, mouse PPAR δ or mouse PPAR α in order to assess the ability of the compounds of the present invention to activate gene expression in a PPAR-dependent manner. The chimeric receptor expression plasmids (GAL4-mPPARγ, GAL4-mPPAR δ and GAL4-PPAR α) and the reporter plasmid containing 5×GAL4 binding site (pFR-Luc, obtained from Stratagene) were transfected into HEK293T cells using the Lipofectamine 2000 reagent (Invitrogen), according to the manufacturers instructions. Six hours after transfection, the culture medium was renewed and the cells were incubated for 20 hours in presence of either 1) DMSO (vehicle), 2) a compound of the invention or 3) a reference compound for comparison. Rosiglitazone (obtained from WDF Pharma) was used as a reference compound for the PPARγ assay; GW501516 (prepared as described in Sznaidman et al. Bioorg. Med. Chem. Lett. (2003) 13:1517-1521) was used as a reference compound for the PPAR δ assay and GW7647 (obtained from Sigma) was used as a reference compound for the PPAR α assay. Luciferase activity was measured as a reporter of gene expression. Luciferase activity on the cell lysates using the Steady-Glo reagent was measured according to the manufacturers instructions.

Another assay concerns the target T2, mouse PPAR δ (Mus musculus, UniProt P35396).
T2 construct: expressed in transfected cells; host or cells: HEK293T
T2 sequence (P35396 210-438 limits assumed): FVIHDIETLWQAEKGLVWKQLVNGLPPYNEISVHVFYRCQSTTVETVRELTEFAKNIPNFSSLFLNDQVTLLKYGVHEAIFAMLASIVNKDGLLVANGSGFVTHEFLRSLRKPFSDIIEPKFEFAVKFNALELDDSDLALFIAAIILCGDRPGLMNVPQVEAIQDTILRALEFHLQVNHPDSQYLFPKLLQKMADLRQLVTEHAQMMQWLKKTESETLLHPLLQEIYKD
As to the kind of experiment: PPAR δ transactivation (GAL4 chimeric receptor luciferase reporter) assay. To be noted: GAL4-mPPAR δ chimeric receptor, pFR-Luc reporter, HEK293T cells, 20 hours incubation.
From the text: as §1

In another assay the target is T3, mouse PPARγ (Mus musculus, UniProt P37238).
T3 construct: expressed in transfected cells; host or cells: HEK293T
T3 sequence (P37238 238-503 limits assumed): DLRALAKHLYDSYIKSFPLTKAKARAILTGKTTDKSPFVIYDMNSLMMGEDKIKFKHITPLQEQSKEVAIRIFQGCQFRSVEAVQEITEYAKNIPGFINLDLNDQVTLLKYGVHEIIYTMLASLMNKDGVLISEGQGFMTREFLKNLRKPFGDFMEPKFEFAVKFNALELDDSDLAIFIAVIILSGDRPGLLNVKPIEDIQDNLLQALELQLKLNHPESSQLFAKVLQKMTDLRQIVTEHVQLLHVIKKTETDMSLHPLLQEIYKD
The assay is described as follows: PPARγ transactivation (GAL4 chimeric receptor luciferase reporter) assay. To be noted: GAL4-mPPARγ chimeric receptor, pFR-Luc reporter, HEK293T cells, 20 hours incubation.
From the text: as §1

[1] abbreviates: read-out: Gene Activation Assay: EC50 (≦10 μM) PPAR alpha, pFR-Luc reporter, HEK293T cells, 20 hours incubation.
Where [2] appears, read: pFR-Luc reporter, HEK293T cells, 20 hours incubation.

Like-named read-outs stand apart in the source and are kept apart here.

In the case of `O=C(O)Cn1ccc2cc(OCCOc3ccc(Cl)cc3-n3nc4ccccc4n3)ccc21` [Compound 1900, {5-[2-(2-Benzotriazol-2-yl-4-chloro-phenoxy)-ethoxy]-indol-1-yl}-acetic acid], the EC50 was above 10 µM at mouse PPAR α (setting [1]), at most 10 µM at mouse PPAR δ and at most 10 µM at mouse PPARγ.
As for `Cc1cc(SCCOc2ccc(Cl)cc2-n2nc3ccccc3n2)ccc1OCC(=O)O` [Compound 400, {4-[2-(2-Benzotriazol-2-yl-4-chloro-phenoxy)-ethylsulfanyl]-2-methyl-phenoxy}-acetic acid], the EC50 at mouse PPAR α (setting [1]) was above 10 µM; on mouse PPAR δ, at most 10 µM; at mouse PPARγ, at most 10 µM.
Regarding `O=C(O)Cn1ncc2cc(OCCCOc3ccc(Cl)cc3-n3nc4ccccc4n3)ccc21` [Compound 1700, {5-[3-(2-Benzotriazol-2-yl-4-chloro-phenoxy)-propoxy]-indazol-1-yl}-acetic acid], the EC50 on mouse PPAR α (setting [2]) was above 30 µM; at mouse PPAR δ it was at most 10 µM; on mouse PPARγ it was at most 10 µM.
For `CCCc1cc(CC(=O)O)ccc1OCCCOc1ccc(Cl)cc1-n1nc2ccccc2n1` [Compound 600, {4-[3-(2-Benzotriazol-2-yl-4-chloro-phenoxy)-propoxy]-3-propyl-phenyl}-acetic acid], the EC50 on mouse PPAR α (setting [2]), on mouse PPAR δ and on mouse PPARγ was at most 10 µM throughout.
Take `Cc1cccc2nn(-c3cc(Cl)ccc3OCCCOc3ccc(CC(=O)O)cc3)nc12` [Compound 1600, (4-{3-[4-Chloro-2-(4-methyl-benzotriazol-2-yl)-phenoxy]-propoxy}-phenyl)-acetic acid]: the EC50 at mouse PPAR α (setting [2]), on mouse PPAR δ and on mouse PPARγ was at most 10 µM each time.
`O=C(O)Cn1ccc2cc(OCCCOc3ccc(Cl)cc3-n3nc4ccccc4n3)ccc21` [Compound 1800, {5-[3-(2-Benzotriazol-2-yl-4-chloro-phenoxy)-propoxy]-indol-1-yl}-acetic acid]: the results for the EC50 at mouse PPAR α (setting [1]), at mouse PPAR δ and on mouse PPARγ were above 10 µM, at most 10 µM and at most 10 µM, respectively.
On to `O=C(O)Cc1ccc(OCCOc2ccc(Cl)cc2-n2nc3ccccc3n2)cc1` [Compound 800, {4-[2-(2-Benzotriazol-2-yl-4-chloro-phenoxy)-ethoxy]-phenyl}-acetic acid], for which the values for the EC50 on mouse PPAR α (setting [1]), on mouse PPAR δ and on mouse PPARγ were above 10 µM, at most 10 µM and at most 10 µM, respectively.
Take `O=C(O)Cc1ccc(OCCCOc2ccc(Cl)cc2-n2nc3ccccc3n2)cc1` [Compound 500, {4-[3-(2-Benzotriazol-2-yl-4-chloro-phenoxy)-propoxy]-phenyl}-acetic acid]: the EC50 at mouse PPAR α (setting [2]), on mouse PPAR δ and at mouse PPARγ was at most 10 µM in each case.
As for `CCCc1cc(CC(=O)O)ccc1OCCOc1ccc(Cl)cc1-n1nc2ccccc2n1` [Compound 900, {4-[2-(2-Benzotriazol-2-yl-4-chloro-phenoxy)-ethoxy]-3-propyl-phenyl}-acetic acid], the EC50 was above 30 µM on mouse PPAR α (setting [2]), at most 10 µM at mouse PPAR δ and at most 10 µM on mouse PPARγ.
On to `O=C(O)Cc1ccc(OCCCOc2ccc(Cl)cc2-n2nc3c(n2)CCCC3)cc1` [Compound 1200, (4-{3-[4-Chloro-2-(4,5,6,7-tetrahydro-benzotriazol-2-yl)-phenoxy]-propoxy}-phenyl)-acetic acid], for which the EC50 on mouse PPAR α (setting [2]), on mouse PPAR δ and at mouse PPARγ was at most 10 µM in each case.
In the case of `Cc1cc(SCCCOc2ccc(Br)cc2-c2nc3ccccc3o2)ccc1OCC(=O)O` [Compound 300, {4-[3-(2-Benzooxazol-2-yl-4-bromo-phenoxy)-propylsulfanyl]-2-methyl-phenoxy}-acetic acid], the EC50 at mouse PPAR α (setting [2]), on mouse PPAR δ and at mouse PPARγ was at most 10 µM in each case.
For the molecule `COc1cccc(C#Cc2cc(Cl)ccc2OCCCOc2ccc(CC(=O)O)cc2)c1` [Compound 1400, (4-{3-[4-Chloro-2-(3-methoxy-phenylethynyl)-phenoxy]-propoxy}-phenyl)-acetic acid], the EC50 is above 10 µM on mouse PPAR α (setting [1]), at most 10 µM on mouse PPAR δ and at most 10 µM at mouse PPARγ.
In the case of `O=C(O)Cc1ccc(OCCCOc2ccc(Cl)cc2C#Cc2ccccc2)cc1` [Compound 1300, {4-[3-(4-Chloro-2-phenylethynyl-phenoxy)-propoxy]-phenyl}-acetic acid], the results for the EC50 at mouse PPAR α (setting [1]), at mouse PPAR δ and on mouse PPARγ were above 10 µM, at most 10 µM and at most 10 µM, respectively.
Take `O=C(O)Cc1ccc(OCCCOc2ccc(Cl)cc2C#Cc2ccccn2)cc1` [Compound 1500, {4-[3-(4-Chloro-2-pyridin-2-ylethynyl-phenoxy)-propoxy]-phenyl}-acetic acid]: the values for the EC50 at mouse PPAR α (setting [1]), at mouse PPAR δ and at mouse PPARγ were above 10 µM, at most 10 µM and at most 10 µM, respectively.

For the origin of these results see US7622491B2, “Modulators of PPAR and methods of their preparation” (Metabolex Inc., priority 2004, dated 2009).
